# Assay results reported in ChEMBL document CHEMBL1914337, “Synthesis and biological evaluation of 2-indolinone derivatives as potential antitumor agents” (Eur J Med Chem, 2011).
# pIC50: −log10 of the molar value. Calls of active or inactive are those of the source. The calls are words filed in the database; no cut-off is given here.
# Assays:
# K562 = experiment: cells; settings: Homo sapiens, K562, 48 h
# Description: Cytotoxicity against human K562 cells after 48 hrs by MTT assay
# PC-3 = experiment: Cytotoxicity against human PC3 cells after 48 hrs by MTT assay; format: functional, cell-based; settings: PC-3, 48 h
# HL-60 = experiment: cells; settings: Homo sapiens, HL-60, 48 h
# Description: Cytotoxicity against human HL60 cells after 48 hrs by MTT assay
# [1] = Cytotoxicity against human QSG7701 cells after 48 hrs by MTT assay; format: cell-based; settings: QSG7701, 48 h
# HCT-116 [2] = experiment: cells; settings: Homo sapiens, HCT-116, 48 h
# Description: Cytotoxicity against human HCT116 cells after 48 hrs by MTT assay
# HepG2 = experiment: cells; settings: Homo sapiens, HepG2, 48 h
# Description: Cytotoxicity against human HepG2 cells after 48 hrs by MTT assay
# A549 = experiment: cells; settings: Homo sapiens, A549, 48 h
# Description: Cytotoxicity against human A549 cells after 48 hrs by MTT assay
# [3] = biological target: T1, Vascular endothelial growth factor receptor 2 (Homo sapiens, UniProt P35968); experiment: Inhibition of VEGF-induced VEGFR2 phosphorylation in human HCT116 cells at 0.2 to 20 uM treated 30 mins before VEGF challenge measured after 2 hrs by immuno blot analysis; format: cell-based; settings: HCT-116
# T1 sequence (P35968 whole entry): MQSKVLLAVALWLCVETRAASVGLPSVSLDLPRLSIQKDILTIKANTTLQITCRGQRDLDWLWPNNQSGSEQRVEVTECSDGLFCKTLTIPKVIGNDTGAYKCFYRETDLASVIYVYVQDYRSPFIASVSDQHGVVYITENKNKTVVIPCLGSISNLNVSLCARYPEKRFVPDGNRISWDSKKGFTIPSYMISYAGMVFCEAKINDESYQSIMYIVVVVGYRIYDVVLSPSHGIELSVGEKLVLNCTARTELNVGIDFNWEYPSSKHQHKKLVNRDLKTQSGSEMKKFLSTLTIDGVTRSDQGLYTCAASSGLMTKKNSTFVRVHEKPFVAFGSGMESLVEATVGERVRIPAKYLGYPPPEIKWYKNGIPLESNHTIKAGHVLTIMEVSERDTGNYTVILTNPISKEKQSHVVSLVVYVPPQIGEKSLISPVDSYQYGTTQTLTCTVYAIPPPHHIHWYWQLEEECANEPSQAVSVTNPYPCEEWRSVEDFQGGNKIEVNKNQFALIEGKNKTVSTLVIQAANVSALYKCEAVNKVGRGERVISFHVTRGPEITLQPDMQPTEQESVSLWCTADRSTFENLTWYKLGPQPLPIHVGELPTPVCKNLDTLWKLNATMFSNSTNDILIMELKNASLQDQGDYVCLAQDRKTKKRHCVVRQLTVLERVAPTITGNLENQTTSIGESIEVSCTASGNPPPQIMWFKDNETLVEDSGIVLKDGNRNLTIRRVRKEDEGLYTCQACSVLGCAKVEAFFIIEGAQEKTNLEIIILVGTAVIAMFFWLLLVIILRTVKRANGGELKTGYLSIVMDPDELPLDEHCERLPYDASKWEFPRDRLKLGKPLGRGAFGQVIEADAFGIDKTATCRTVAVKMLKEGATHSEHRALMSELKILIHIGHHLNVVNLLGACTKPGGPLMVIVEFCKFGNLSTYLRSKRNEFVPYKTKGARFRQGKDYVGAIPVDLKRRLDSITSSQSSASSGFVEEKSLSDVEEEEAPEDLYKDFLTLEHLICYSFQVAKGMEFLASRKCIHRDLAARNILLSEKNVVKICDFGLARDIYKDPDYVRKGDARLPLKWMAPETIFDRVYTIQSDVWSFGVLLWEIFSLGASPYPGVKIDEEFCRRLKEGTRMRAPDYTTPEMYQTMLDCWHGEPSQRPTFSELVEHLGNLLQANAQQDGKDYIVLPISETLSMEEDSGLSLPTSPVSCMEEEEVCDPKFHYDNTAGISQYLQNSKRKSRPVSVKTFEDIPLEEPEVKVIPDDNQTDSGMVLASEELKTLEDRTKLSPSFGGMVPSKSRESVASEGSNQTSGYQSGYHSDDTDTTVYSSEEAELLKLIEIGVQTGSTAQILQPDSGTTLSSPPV
# [4] = biological target: T1, Vascular endothelial growth factor receptor 2; experiment: Inhibition of human VEGFR2 preincubated for 10 mins before ATP addition measured after 45 mins
# HCT-116 [5] = experiment: Induction of apoptosis in human HCT116 cells at 8 uM after 48 hrs using annexin V/propidium iodide staining by flow cytometry (reference value: 4.17%); format: functional
# HCT-116 [6] = experiment: Cell cycle arrest in human HCT116 cells assessed as accumulation at G1 phase at 8 uM after 48 hrs using propidium iodide by flow cytometry (reference value: 36.8%); format: functional
# HCT-116 [7] = experiment: Cell cycle arrest in human HCT116 cells assessed as accumulation at S phase at 2 uM after 48 hrs using propidium iodide by flow cytometry (reference value: 46.43%); format: functional
# HCT-116 [8] = experiment: Cell cycle arrest in human HCT116 cells assessed as accumulation at G1 phase at 2 uM after 48 hrs using propidium iodide by flow cytometry (reference value: 36.8%); format: functional
# HCT-116 [9] = experiment: Induction of apoptosis in human HCT116 cells at 0.5 uM after 48 hrs using annexin V/propidium iodide staining by flow cytometry (reference value: 4.17%); format: functional
# HCT-116 [10] = experiment: Cell cycle arrest in human HCT116 cells assessed as accumulation at S phase at 0.5 uM after 48 hrs using propidium iodide by flow cytometry (reference value: 46.43%); format: functional
# HCT-116 [11] = experiment: Cell cycle arrest in human HCT116 cells assessed as accumulation at G2 phase at 0.5 uM after 48 hrs using propidium iodide by flow cytometry (reference value: 16.77%); format: functional
# HCT-116 [12] = experiment: Cell cycle arrest in human HCT116 cells assessed as accumulation at G1 phase after 48 hrs using propidium iodide by flow cytometry; format: functional, cell-based
# HCT-116 [13] = experiment: Cell cycle arrest in human HCT116 cells assessed as accumulation at S phase at 8 uM after 48 hrs using propidium iodide by flow cytometry (reference value: 46.43%); format: functional
# HCT-116 [14] = experiment: Cell cycle arrest in human HCT116 cells assessed as accumulation at G2 phase at 8 uM after 48 hrs using propidium iodide by flow cytometry (reference value: 16.77%); format: functional
# HCT-116 [15] = experiment: Induction of apoptosis in human HCT116 cells assessed as increase in late apoptotic cells after 48 hrs using annexin V/propidium iodide staining by flow cytometry; format: functional, cell-based
# HCT-116 [16] = experiment: Cell cycle arrest in human HCT116 cells assessed as accumulation at G2 phase at 2 uM after 48 hrs using propidium iodide by flow cytometry (reference value: 16.77%); format: functional
# HCT-116 [17] = experiment: Induction of apoptosis in human HCT116 cells at 2 uM after 48 hrs using annexin V/propidium iodide staining by flow cytometry (reference value: 4.17%); format: functional
# HCT-116 [18] = experiment: Cell cycle arrest in human HCT116 cells assessed as accumulation at G1 phase at 0.5 uM after 48 hrs using propidium iodide by flow cytometry (reference value: 36.8%); format: functional
Compound,pIC50 (K562),pIC50 (HL-60),pIC50 (HCT-116 [2]),pIC50 (HepG2),pIC50 (A549),pIC50 (PC-3),pIC50 [1],other results
CCc1cccc2c(/C=C3\C(=O)Nc4ncccc43)c[nH]c12,4.56,4.43,4.87,4.98,4.77,< 4.30,4.37,
CN(C)CCNC(=O)c1ccc(/C=C2\C(=O)Nc3ccc(F)cc32)[nH]c1=O,4.71,4.61,5.28,4.77,4.90,4.60,< 4.30,
CCc1cccc2c(/C=C3\C(=O)Nc4ccc(F)cc43)c[nH]c12,4.80,4.57,5.07,4.55,4.96,4.58,< 4.30,inhibition [3]: Active; pIC50 [4]: 5.18
O=C1Nc2ccc(F)cc2/C1=C/c1c[nH]c2cc(F)ccc12,< 4.30,4.37,4.55,< 4.30,< 4.30,< 4.30,< 4.30,
Cc1[nH]c(/C=C2\C(=O)Nc3ccncc32)c(C)c1C(=O)N1CCN(C)CC1,< 4.30,< 4.30,< 4.30,< 4.30,< 4.30,< 4.30,< 4.30,
CCN(CC)CCNC(=O)c1ccc(/C=C2\C(=O)Nc3cccnc32)[nH]c1=O,4.60,4.48,5.09,4.90,4.93,4.52,< 4.30,
O=C1Nc2ncccc2/C1=C/c1c[nH]c2cc(F)ccc12,< 4.30,4.47,4.65,4.81,4.51,< 4.30,< 4.30,
O=C1Nc2cccnc2C1=Cc1c[nH]c2ccc(F)cc12 (mixture of isomers),< 4.30,< 4.30,< 4.30,< 4.30,< 4.30,< 4.30,< 4.30,
CN(C)CCNC(=O)c1ccc(/C=C2\C(=O)Nc3ncccc32)[nH]c1=O,4.67,4.46,5.37,4.56,4.86,4.59,< 4.30,
Cc1[nH]c(/C=C2\C(=O)Nc3ncccc32)c(C)c1C(=O)N1CCN(C)CC1,< 4.30,4.40,4.46,4.43,4.32,< 4.30,< 4.30,
Cc1[nH]c(/C=C2\C(=O)Nc3ncccc32)c(C)c1C(=O)N1CCN(CCO)CC1,< 4.30,< 4.30,< 4.30,< 4.30,< 4.30,< 4.30,< 4.30,
Cc1[nH]c(/C=C2\C(=O)Nc3ncccc32)c(C)c1C(=O)NCCN(C)C,4.70,4.31,5.04,4.74,4.68,4.31,< 4.30,
Cc1[nH]c(/C=C2\C(=O)Nc3ncccc32)c(C)c1C(=O)NCCN1CCOCC1,< 4.30,4.56,4.59,< 4.30,4.53,< 4.30,< 4.30,
Cc1[nH]c(/C=C2\C(=O)Nc3ccncc32)c(C)c1C(=O)NCCN(C)C,4.80,4.46,5.04,5.07,4.90,< 4.30,< 4.30,inhibition [3]: Active; pIC50 [4]: 7.22
Cc1[nH]c(/C=C2\C(=O)Nc3cccnc32)c(C)c1C(=O)NCCN(C)C,4.62,4.34,4.91,4.69,4.78,4.33,< 4.30,
O=C1Nc2ccc(F)cc2/C1=C/c1ccc(C(=O)NCCN2CCCCC2)c(=O)[nH]1,4.57,4.49,5.02,4.72,4.82,4.55,< 4.30,
CCc1cccc2c(C=C3C(=O)Nc4cccnc43)c[nH]c12 (mixture of isomers),< 4.30,4.47,4.65,< 4.30,4.49,< 4.30,4.35,

# Second part, led by results:
pIC50 (K562),pIC50 (HL-60),pIC50 (HCT-116 [2]),pIC50 (HepG2),pIC50 (A549),Compound,pIC50 (PC-3),pIC50 [1],other results
4.66,4.81,5.21,4.81,4.73,CCN(CC)CCNC(=O)c1c(C)[nH]c(/C=C2\C(=O)Nc3ccc(F)cc32)c1C [SUNITINIB],4.60,< 4.30,
< 4.30,< 4.30,< 4.30,< 4.30,< 4.30,Cc1[nH]c(/C=C2\C(=O)Nc3ccncc32)c(C)c1C(=O)N1CCN(CCO)CC1,< 4.30,< 4.30,
4.74,4.52,4.74,4.41,4.60,Cc1[nH]c(/C=C2\C(=O)Nc3ncccc32)c(C)c1C(=O)NCCN1CCCCC1,4.59,< 4.30,
4.35,4.41,4.89,4.46,4.66,O=C1Nc2ccc(F)cc2/C1=C/c1ccc(C(=O)NCCN2CCOCC2)c(=O)[nH]1,4.45,< 4.30,
4.52,4.32,4.75,< 4.30,< 4.30,O=C1Nc2ncccc2/C1=C/c1c[nH]c2ccc(F)cc12,< 4.30,< 4.30,
< 4.30,< 4.30,< 4.30,< 4.30,< 4.30,O=C1Nc2cccnc2C1=Cc1c[nH]c2cc(F)ccc12 (mixture of isomers),< 4.30,< 4.30,
4.83,4.46,4.96,4.79,4.86,CCN(CC)CCNC(=O)c1c(C)[nH]c(/C=C2\C(=O)Nc3ccncc32)c1C,< 4.30,< 4.30,
< 4.30,< 4.30,4.38,< 4.30,< 4.30,O=C1Nc2ccc(F)cc2/C1=C/c1c[nH]c2ccc(F)cc12,< 4.30,< 4.30,
4.86,4.64,5.64,5.30,5.21,CCN(CC)CCNC(=O)c1ccc(/C=C2\C(=O)Nc3ccc(F)cc32)[nH]c1=O.Cl,4.68,< 4.30,Activity (HCT-116 [5]): 48.67%; Activity (HCT-116 [6]): 81.63%; Activity (HCT-116 [7]): 38.76%; Activity (HCT-116 [8]): 45.4%; Activity (HCT-116 [9]): 20.48%; inhibition [3]: Active; Activity (HCT-116 [10]): 42.45%; Activity (HCT-116 [11]): 12.11%; Activity (HCT-116 [12]): Dose-dependent effect; Activity (HCT-116 [13]): 18.27%; pIC50 [4]: 7.82; Activity (HCT-116 [14]): 0.1%; Activity (HCT-116 [15]): Dose-dependent effect; Activity (HCT-116 [16]): 8.61%; Activity (HCT-116 [17]): 28.63%; Activity (HCT-116 [18]): 42.6%
